Experimental data from article PMC11403616, “Arcopilins: A New Family of Staphylococcus aureus Biofilm Disruptors from the Soil Fungus Arcopilus navicularis” (Journal of Medicinal Chemistry, 2024).
Converted amounts (≈) assume the structure as drawn. “Also recorded” adds a separate entry of the source. Like-named read-outs stand apart in the source and are kept apart here.

Key:
[1] = test system: B. subtilis DSM 10; assay: MIC against bacteria (antimicrobial assay); format: cell-based, Bacillus subtilis; conditions: for MIC: Bacillus subtilis, DSM10, DSM 10, – = no activity observed under test conditions; for MIC B. subtilis: supplement CSV, decimal comma, unit not given, in µg/mL
Protocol: (§1) The antimicrobial activities of compounds 1–7 (Acp A–G) were assessed against different bacterial and fungal strains in addition to their cytotoxic effects on two mammalian cell lines. The tested microorganisms comprised a diverse array of clinically relevant pathogens, encompassing sensitive indicator strains. Among the Gram-positive bacteria were Bacillus subtilis, Staphylococcus aureus, and Mycolicibacterium smegmatis. Gram-negative bacteria included Acinetobacter baumannii, Chromobacterium violaceum, Escherichia coli, and Pseudomonas aeruginosa. Additionally, filamentous fungi such as Mucor hiemalis and yeasts including Candida albicans, Wickerhamomyces anomalus, Rhodotorula glutinis, and Schizosaccharomyces pombe were included. Generally, all compounds presented similar biological properties, summarized in weak or no activity against fungal pathogens as well as weak to moderate inhibition of Gram-positive bacteria (Table 2).
(§2) The antimicrobial and cytotoxic assays were performed according to the methods reported previously.[57]

[2] = test system: S. aureus DSM 346; assay: MIC against bacteria (antimicrobial assay); format: cell-based, Staphylococcus aureus; conditions: for MIC: Staphylococcus aureus, DSM346, DSM 346, – = no activity observed under test conditions; for MIC S. aureus: supplement CSV, decimal comma, unit not given, in µg/mL
Protocol: as §1, §2

[3] = test system: M. hiemalis DSM 2656; assay: MIC against fungi (antimicrobial assay); format: cell-based, Mucor hiemalis; conditions: for MIC: Mucor hiemalis, DSM2656, DSM 2656, – = no activity observed under test conditions; for MIC M. hiemalis: supplement CSV, decimal comma, unit not given, in µg/mL
Protocol: as §1, §2

[4] = test system: KB-3-1 (ACC 158); assay: Cytotoxicity against mammalian cell lines; format: cell-based; conditions: Homo sapiens
Protocol: as §1, §2

[5] = test system: L929 (ACC 2); assay: Cytotoxicity against mammalian cell lines; format: cell-based; conditions: Mus musculus
Protocol: as §1, §2

[6] = test system: preformed biofilms of S. aureus DSM 1104; assay: Disruption of preformed biofilms, crystal violet assay; format: cell-based, Staphylococcus aureus
Protocol: Therefore, Acp A–G were evaluated against preformed biofilms of S. aureus using crystal violet staining.[47]
Cultures of S. aureus DSM 1104 were prepared by inoculating 1 mL aliquots from a frozen stock (−20 °C) into 25 mL of CASO medium and incubating them overnight at 37 °C with shaking at 130 rpm.
The crystal violet assay was performed according to a previously reported procedure.[47] Arcopilins A–G were tested in serial dilutions (250–2 μg/mL), with methanol and microporenic acid A (MAA) as negative and positive controls, respectively. Statistical differences between samples and the controls were determined using a two-tailed Student’s t test, with statistical significance defined as p < 0.01. Statistical analysis was carried out using GraphPad Prism 9 (GraphPad Software, San Diego, CA).[58]

[7] = test system: planktonic cells of S. aureus DSM 1104; assay: Checkerboard broth dilution assay (FICI); format: cell-based, Staphylococcus aureus
Source text: After assessing the effects of Acp A on the pathogen S. aureus, we delved deeper into the interaction of Acp A with established antibiotics (GM and Vac). This exploration focused on both planktonic cells and preformed biofilms of S. aureus. Consequently, we used a checkerboard assay to determine the fractional inhibitory concentration index (FICI) for combinations involving Acp A, GM, or Vac based on both their MIC values in combination.[49]
The interaction between arcopilin A, vancomycin, and gentamicin against S. aureus DSM 1104 was evaluated using a checkerboard broth dilution method to determine the fractional inhibitory concentration indices (FICIs), calculated as FIC = MIC of drug A in combination/MIC of drug A alone + MIC of drug B in combination/MIC of drug B alone.[59] The FICIs were interpreted as synergistic (FICI ≤ 0.5). For this assay, a seed culture was prepared as previously described to inoculate fresh CASO with 4% glucose broth to match the turbidity of a 0.1 McFarland standard suspension. Then, 100 μL of bacterial suspension was distributed in 96-well nontissue microtiter plates (TPP nontissue culture ref no. 92197, Switzerland). Arcopilin A (7.8–2 μg/mL) and antibiotics (vancomycin and gentamicin: 31.3–0.016 μg/mL) were added in increasing concentrations in columns and rows, respectively. The experiments were conducted in duplicate.

[8] = test system: preformed biofilms of S. aureus DSM 1104; assay: CFU count analysis, synergistic effects on preformed biofilms; format: cell-based, Staphylococcus aureus; conditions: Acp A 7.8–3.9 μg/mL, GM 7.8–2 μg/mL, Vac 15.6–3.9 μg/mL
Protocol: The seed culture of S. aureus DSM 1104 was prepared as previously described, and the OD600 was adjusted to match the turbidity of a 0.001 McFarland standard. Then, 150 μL of bacterial solution in CASO with 4% glucose broth was incubated in 96-well tissue plates (TPP tissue culture ref no. 92196, Switzerland) for 24 h at 150 rpm. […] Methanol (2.5%) was used as the solvent control. The plates were incubated for a further 24 h at 37 °C. Colony-forming unit (CFU) count analysis of arcopilin A, antibiotics (vancomycin and gentamicin), and their combinations was performed as previously described.[58] Cells were suspended in the well 50 times. Dilution series in 1 to 10 steps (20 μL in 200 μL) were prepared down to a final dilution level of 10^–6, and 100 μL of this last dilution was platted on LB agar plates using 3 mm small glass beads (5 to 10, Omnilab, Germany) to homogeneously spread the liquid. Individual colonies on agar plates were counted after incubation at 30 °C for 24 and 48 h.[60] Afterward, CFUs were calculated by considering the dilution factors. Error bars indicate the SD of duplicate with two repeats.

[9] = test system: human cancer cell lines; conditions: cited from earlier work
[10] = test system: different bacterial and fungal strains; assay: Antimicrobial activities against bacterial and fungal strains (whole panel); format: cell-based; conditions: whole panel of bacteria and fungi
Protocol: as §1, §2

[11] = test system: two mammalian cell lines; assay: Cytotoxic effects on two mammalian cell lines (summary); format: cell-based; conditions: KB-3-1 and L929
Protocol: as §1, §2

[12] = test system: S. aureus; conditions: cited from earlier work
[13] = test system: methicillin-resistant S. aureus (MRSA); conditions: cited from earlier work
[14] = test system: M. smegmatis ATCC 700084; assay: MIC against bacteria (antimicrobial assay); format: cell-based, Mycolicibacterium smegmatis
Protocol: as §1, §2

[15] = KB 3-1, ACC 158, – = no activity observed under test conditions, read-out: IC50 against mammalian cell lines, KB-3-1
[16] = L929, ACC 2, – = no activity observed under test conditions, read-out: IC50 against mammalian cell lines, L929

Compound: C[C@H](C[C@@H](C)[C@H](C)OC=O)C[C@H](C)C(=O)C1=C(O)/C(=C/c2ccccc2)NC1=O [Acp C, Arcopilin C]
- MIC [1]: 33.3 µg/mL (≈ 83.4 µM)
- MIC B. subtilis [1]: 33,3
- MIC [2]: 33.3 µg/mL (≈ 83.4 µM)
- MIC S. aureus [2]: 33,3
- MIC [3]: 66.7 µg/mL (≈ 167 µM)
- MIC M. hiemalis [3]: 66,7
- IC50 [4, 15]: 800 ng/mL (≈ 2 µM)
- IC50 [5, 16]: 1400 ng/mL (≈ 3.5 µM)
- efficacy toward preformed biofilms ([6]; at 3.9 μg/mL): 35–45%
- effectiveness in the dispersal of preformed biofilms ([6]; between 7.8 μg/mL and 250 μg/mL): approximately 50%
- disrupting effect on preformed biofilms (in words) ([6]; tested 250–2 μg/mL): most promising disrupting effects; also recorded: remarkable effectiveness

Compound: CN[C@H](CC(C)C)C(=O)N[C@H]1C(=O)N[C@@H](CC(N)=O)C(=O)N[C@H]2C(=O)N[C@H]3C(=O)N[C@H](C(=O)N[C@H](C(=O)O)c4cc(O)cc(O)c4-c4cc3ccc4O)[C@H](O)c3ccc(c(Cl)c3)Oc3cc2cc(c3O[C@@H]2O[C@H](CO)[C@@H](O)[C@H](O)[C@H]2O[C@H]2C[C@](C)(N)[C@H](O)[C@H](C)O2)Oc2ccc(cc2Cl)[C@H]1O [Vac, vancomycin]
- increase of the potency of the antibiotic in combination with Acp A ([7]; Acp A 3.9 μg/mL, MIC alone versus in combination): ≤ 31 fold
- MIC ([7]; Staphylococcus aureus, DSM1104, read-out: MIC of each single compound (MICs)): 2 µg/mL
- MIC in combination (MICc), Acp A and Vac ([7]; combination of Acp A (3.9 μg/mL) with Vac): 0.065 µg/mL
- improvement in the inhibitory effects in combination with Acp A [8]: ~3 fold

Compound: C/C=C(\C)[C@H]1C(C)=C[C@@]2(C)C[C@@H](C)CC[C@@H]2[C@H]1C(=O)C1=C[C@](CC(C)C)(OC)NC1=O [myceliothermophin D]
- antitumor activity against a number of human cancer cell lines [9]: potent antitumor activity

Compound: C[C@@H](C[C@H](C)C(=O)C1=C(O)/C(=C/c2ccccc2)NC1=O)C[C@](C)(O)[C@@H](O)C(=O)O [Acp F, Arcopilin F]
- antimicrobial activity (in words) [10]: did not exhibit any antimicrobial activity
- cytotoxic properties (in words) [11]: weak or no cytotoxic effects

Compound: myceliothermophin E
- antitumor activity against a number of human cancer cell lines [9]: potent antitumor activity

Compound: C/C=C(\C)[C@@H]1C(C)=C[C@]2(C)C[C@H](C)CC[C@H]2[C@@H]1C(=O)C1=C[C@](Cc2ccccc2)(OC)NC1=O [chaetolivacine B]
- antibacterial properties against S. aureus [12]: moderate antibacterial properties
- antibacterial properties against MRSA [13]: moderate antibacterial properties

Compound: C[C@H](C[C@@H](C)[C@H](C)O)C[C@H](C)C(=O)C1=C(O)/C(=C/c2ccccc2)NC1=O [Acp B, Arcopilin B]
- MIC [1]: 66.7 µg/mL (≈ 180 µM)
- MIC B. subtilis [1]: 66,7
- MIC [2]: 66.7 µg/mL (≈ 180 µM)
- MIC S. aureus [2]: 66,7
- cytotoxic properties (in words) [11]: weak or no cytotoxic effects

Compound: C/C(=C\c1csc(C)n1)[C@@H]1C[C@@H]2O[C@]2(C)CCC[C@H](C)[C@H](O)[C@@H](C)C(=O)C(C)(C)[C@@H](O)CC(=O)O1 [Epothilone B, reference compound]
- IC50 ([4]; KB 3-1, read-out: IC50 against mammalian cell lines, KB-3-1): 0.0086 ng/mL (≈ 1.69e-05 µM)
- IC50 ([5]; L929, read-out: IC50 against mammalian cell lines, L929): 0.086 ng/mL (≈ 0.000169 µM)

Compound: C/C=C(\C)[C@H]1C(C)=C[C@@]2(C)C[C@@H](C)CC[C@@H]2[C@H]1C(=O)C1=C[C@@](CC(C)C)(OC)NC1=O [myceliothermophin C]
- antitumor activity against a number of human cancer cell lines [9]: potent antitumor activity

Compound: CC[C@H](C)[C@@H]1O[C@H](c2c(O)c(-c3ccccc3)cn(O)c2=O)[C@@H](C)C[C@@H]1C [Acp G, Arcopilin G]
- MIC [1]: 8.3 µg/mL (≈ 22.3 µM)
- MIC B. subtilis [1]: 8,3
- MIC [2]: 16.6 µg/mL (≈ 44.7 µM)
- MIC S. aureus [2]: 16,6
- IC50 [4, 15]: 0.2 ng/mL (≈ 0.000538 µM)
- IC50 [5, 16]: 0.024 ng/mL (≈ 6.46e-05 µM)
- cytotoxic properties (in words) [11]: most cytotoxic metabolite

Compound: C[C@@H](C[C@H](C)C(=O)C1=C(O)/C(=C/c2ccccc2)NC1=O)C[C@](C)(O)C(=O)CO [Acp E, Arcopilin E]
- antimicrobial activity (in words) [10]: did not exhibit any antimicrobial activity
- cytotoxic properties (in words) [11]: weak or no cytotoxic effects

Compound: CN(C)[C@@H]1C(O)=C(C(N)=O)C(=O)[C@@]2(O)C(O)=C3C(=O)c4c(O)cccc4[C@@](C)(O)[C@H]3[C@H](O)[C@@H]12 [Oxytetracycline, reference compound]
- MIC [1]: 8.3 µg/mL (≈ 18 µM)

Compound: CC[C@H](C)C[C@@H](C)C[C@H](C)C(=O)C1=C(O)/C(=C/c2ccccc2)NC1=O [Acp D, Arcopilin D]
- MIC [1]: 4.2 µg/mL (≈ 11.8 µM)
- MIC B. subtilis [1]: 4,2
- MIC ([14]; Mycolicibacterium smegmatis, ATCC700084, ATCC 700084, – = no activity observed under test conditions): 66.7 µg/mL (≈ 188 µM)
- MIC M. smegmatis ([14]; supplement CSV, decimal comma, unit not given, in µg/mL): 66,7
- MIC [3]: 66.7 µg/mL (≈ 188 µM)
- MIC M. hiemalis [3]: 66,7
- IC50 [4, 15]: 800 ng/mL (≈ 2.25 µM)
- IC50 [5, 16]: 1700 ng/mL (≈ 4.78 µM)
- lowest concentration with significant dispersal effects [6]: 31.3 µg/mL
